Assay results as given in patent EP4308247B1, “USE OF MONO[…] TREATING SIGNS OF SKIN AGING” (Unilever IP Holdings B.V., priority 2021, dated 2022).

System: primary adult human dermal fibroblasts (HDFs)
Test: High-throughput compound screen for senolytic activity (cell viability by Hoechst 33342 / SYTOX Green imaging) in early proliferating (EP) and deeply senescent (DS) fibroblasts
Type: cell-based
Parameters: key to hit classification based on EP and DS cell viability: senolytic: EP cell viability above the 89% EP threshold and DS cell viability below the 87% DS threshold for at least one concentration of the three serial concentrations; prolifolytic: decreased EP cell viability below the 89% EP threshold but did not decrease DS cell viability below 87%; cytotoxic: decreased both EP and DS cell viability below their respective thresholds; non-toxic: maintained both EP and DS viability above their respective thresholds
Excerpt: A high-throughput compound screen of 1240 test compounds including inter alia monostearin (IUPAC: 1,3-dihydroxypropan-2-yl octadecanoate 2,3-dihydroxypropyl octadecanoate) was optimised in primary adult human dermal fibroblasts (HDFs). For this, a model of replicative senescence in HDFs was established. In brief, early proliferating (EP) fibroblasts at passage 11 were serially passaged until they reached replicative senescence at passage 29.
Actinomycin D, a drug widely reported to induce apoptosis in multiple cell types, was optimised for use as a positive 'senolytic control' for the high-throughput compound screen in EP (0.02µM) and DS (0.2µM) HDFs.
In order to perform the high-throughput screen of the test compounds a thorough validation process of the assay was undertaken prior to experimental screening. For both EP and DS HDFs, the following steps were optimised: optimisation of cell seeding densities in 384-well plate format; validation and optimisation of Actinomycin D positive and DMSO-vehicle negative controls; optimisation of high-throughput image acquisition and high content analysis of Hoechst 33342 (ThermoFisher, UK) in combination with SYTOX Green (ThermoFisher, UK) using the INCell 2200 microscope (GE, UK) for cell death phenotypic read-outs; optimisation of liquid handling system protocols; plate uniformity assessments; and a "dry run" of all components in the assay. […]

CCCCCCCCCCCCCCCCCC(=O)OCC(O)CO (centres unmarked) [monostearin, 1,3-dihydroxypropan-2-yl octadecanoate 2,3-dihydroxypropyl octadecanoate]
cytotoxicity for senescent cells, compared to growing cells (DS versus EP HDFs, conclusion drawn from the screen): preferential cytotoxicity for senescent cells
hit classification based on EP and DS cell viability (EP and DS HDFs, three serial concentrations, 48 hours incubation, read-out five days post-compound addition, class met for at least one concentration): senolytic
